Type in all cases: binding
The target in assay [1] is T1, ADRB2 (Homo sapiens, UniProt P07550).
T1 construct: purchased Promega (in-house HiBiT-GPCR construct library, NanoBRET)
Briefly: NanoBRET screen HiBiT-ADRB2 in HEK293. As to the method:
(§1) Each tracer candidate was screened across the entire library of HiBiT-GPCR constructs using NanoBRET as the detection modality. As depicted in Figure 4A, the specificity of interactions was evaluated through decrease in BRET due to competitive displacement of a bound tracer by excess parental compound. Each tracer was analyzed for binding to each HiBiT-GPCR fusion in the absence and in the presence of competing parental compound. Briefly, HEK293 cells were transfected with HiBiT-GPCR constructs diluted into promoterless DNA to reduce expression and maximize translocation to the cell surface. Each tracer candidate was then screened at concentrations of 1 μM and 0.1 μM across cells expressing these fusions. Cells were treated for 1.5 h with tracer either alone or in the presence of 20 μM competing parental compound (i.e., control). BRET was measured upon addition of purified LgBiT and subsequent complementation with HiBiT genetically fused to a GPCR. The specificity of interactions was assessed through a decrease in BRET signal due to competitive displacement of the bound tracer. To further gauge the robustness of these interactions, the fold response over the control (i.e., BRETtracer/BRETcontrol) was calculated. We chose a 1.5-fold response, which translates to ≥7-fold signal over noise as the minimal threshold required to score an interaction as positive.
(§2) HiBiT-GPCR DNA constructs were diluted in 10 mM Tris pH 8 to a final concentration of 0.01 μg/μL, arrayed in 96-well plates and stored at −20 °C. For transfection, HEK293 cells were suspended in Opti-MEM (without phenol red) supplemented with 2% fetal bovine serum (Seradigm) and 100 units/mL penicillin–streptomycin (Gibco) at a final concentration of 220,000 cells/mL and dispensed into white 96-well plates at 90 μL/well. Subsequent transfections and screens were carried using an Agilent Bravo Automated Liquid Handling Platform. First, the 96-well HiBiT DNA arrays were diluted 25-fold in Opti-MEM (without serum or phenol red) to a final concentration of 0.0004 μg/μL and 20 μL of the diluted DNAs were transferred into new 96-well plates. Next, promoterless carrier DNA (1 μg/μL) was diluted 25-fold (0.04 μg/μL) and then dispensed into the diluted arrays at 20 μL/well. Following brief mixing, Viafect transfection reagent (Promega) diluted 16-fold into Opti-MEM was dispensed into the plates at 40 μL/well. After mixing by pipetting, plates were incubated for 10 min on the pipetting station deck. The DNA-transfection reagent complexes were then added to plates containing cells. To facilitate the screen, 10 μL of DNA-transfection reagent complexes were added in duplicates to the top 4 and bottom 4 rows, resulting in two identical 48-well arrays per plate. Plates with transfected cells were incubated for 18–20 h at 37 °C/5% CO2. A screen of each tracer across the entire library using two different concentrations requires duplicate plates of transfected cells. Depending on the number of tracers being screened, transfections can be scaled up using the same ratios. The next day, for each tracer, four 20× screening solutions in tracer dilution buffer (Promega) were prepared: two duplicates at final concentration of 20 μM and two duplicates at a final concentration of 2 μM. […] The four resulting solutions were diluted 4-fold in Opti-MEM without serum or phenol red to generate 5× solutions (5 µM and 0.5 µM tracer +/− 100 μM competing compound). To screen the library, a BioTek MultiFlo FX liquid dispenser was used to dispense 22.5 µL of tracer solution to the top 4 rows and 22.5 µL tracer + competing compound solution to the 4 bottom rows. Plates were briefly mixed on an orbital shaker and incubated for 1.5 h at room temperature. […] Plates were briefly mixed on an orbital shaker and incubated for 15 min to allow complementation.

In assay [2] the target is T2, EDNRB (Homo sapiens, UniProt P24530).
T2 construct: purchased Promega (in-house HiBiT-GPCR construct library, NanoBRET)
T2 sequence (P24530 27-442): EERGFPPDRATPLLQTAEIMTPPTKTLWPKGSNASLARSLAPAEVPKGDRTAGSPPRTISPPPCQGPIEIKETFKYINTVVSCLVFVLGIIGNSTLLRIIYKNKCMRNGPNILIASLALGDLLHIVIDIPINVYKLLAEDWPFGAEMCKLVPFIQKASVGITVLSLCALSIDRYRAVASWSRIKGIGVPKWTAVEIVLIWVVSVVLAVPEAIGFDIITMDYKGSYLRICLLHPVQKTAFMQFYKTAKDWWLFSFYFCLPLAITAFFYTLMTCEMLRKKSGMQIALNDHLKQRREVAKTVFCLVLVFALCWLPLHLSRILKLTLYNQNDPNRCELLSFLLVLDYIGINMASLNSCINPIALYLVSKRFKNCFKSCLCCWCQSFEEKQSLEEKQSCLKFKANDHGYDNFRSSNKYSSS
The assay can be described thus: NanoBRET screen HiBiT-EDNRB in HEK293. As to the method: as §1, §2
For orientation: Bioluminescence resonance energy transfer reports proximity on the nanometre scale.

For assay [3], the target named is T3, FZD10 (Homo sapiens, UniProt Q9ULW2).
T3 construct: purchased Promega (in-house HiBiT-GPCR construct library, NanoBRET)
T3 sequence (Q9ULW2 21-581): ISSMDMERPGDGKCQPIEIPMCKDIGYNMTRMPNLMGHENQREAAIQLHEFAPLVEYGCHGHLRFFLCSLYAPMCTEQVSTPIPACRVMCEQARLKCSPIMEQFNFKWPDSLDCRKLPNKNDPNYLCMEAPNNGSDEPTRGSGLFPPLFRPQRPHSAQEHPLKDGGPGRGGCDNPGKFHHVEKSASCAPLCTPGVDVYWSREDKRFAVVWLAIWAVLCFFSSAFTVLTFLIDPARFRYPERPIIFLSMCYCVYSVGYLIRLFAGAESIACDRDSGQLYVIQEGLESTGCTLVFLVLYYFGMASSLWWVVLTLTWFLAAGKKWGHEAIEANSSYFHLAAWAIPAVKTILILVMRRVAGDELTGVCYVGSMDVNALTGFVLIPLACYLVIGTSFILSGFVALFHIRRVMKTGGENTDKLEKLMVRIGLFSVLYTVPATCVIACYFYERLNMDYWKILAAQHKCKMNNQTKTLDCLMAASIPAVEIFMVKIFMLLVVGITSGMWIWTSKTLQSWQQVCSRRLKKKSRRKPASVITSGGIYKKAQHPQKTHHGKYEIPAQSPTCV
Briefly: NanoBRET screen HiBiT-FZD10 in HEK293. As to the method:
as §1, §2

T1 sequence (P07550 whole entry): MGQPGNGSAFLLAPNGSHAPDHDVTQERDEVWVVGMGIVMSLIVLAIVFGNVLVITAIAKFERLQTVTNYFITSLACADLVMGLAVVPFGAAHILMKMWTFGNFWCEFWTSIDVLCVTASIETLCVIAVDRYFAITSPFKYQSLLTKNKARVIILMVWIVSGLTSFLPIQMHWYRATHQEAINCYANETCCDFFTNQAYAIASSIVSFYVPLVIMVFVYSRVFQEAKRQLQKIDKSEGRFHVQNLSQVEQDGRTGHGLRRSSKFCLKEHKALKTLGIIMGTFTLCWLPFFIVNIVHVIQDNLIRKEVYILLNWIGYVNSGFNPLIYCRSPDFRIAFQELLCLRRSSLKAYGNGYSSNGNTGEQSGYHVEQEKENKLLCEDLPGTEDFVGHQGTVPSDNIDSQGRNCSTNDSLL

Turning to `O=C(CCOCCOCCOCCOCCNC(=O)CCc1ccc2n1[B-](F)(F)[N+]1=C(c3ccc[nH]3)C=CC1=C2)NCCCN1CCN(C2=Nc3ccccc3Oc3ccc(Cl)cc32)CC1` [Loxapine-a-2-NB590], the “NanoBRET Fold Response” value in assay [1] (ADRB2, tracer 0.1μM) was 1.06; in assay [1] (ADRB2, tracer 1μM) it was 0.94; in assay [2] (EDNRB, tracer 0.1μM) it was 1.05; in assay [2] (EDNRB, tracer 1μM) it was 0.89; in assay [3] (FZD10, tracer 0.1μM), 0.98; in assay [3] (FZD10, tracer 1μM), 0.99.
Take `CCCn1c(=O)c2[nH]c(-c3ccc(OCC(=O)NCCNC(=O)CCOCCNC(=O)c4ccc(CNC(=O)CCc5ccc6n5[B-](F)(F)[N+]5=C(c7ccc[nH]7)C=CC5=C6)cc4)cc3)nc2n(CCC)c1=O` [XAC-3-NB590]: the “NanoBRET Fold Response” value turned out to be 1.04 in assay [1] (ADRB2, tracer 0.1μM); 1.10 in assay [1] (ADRB2, tracer 1μM); 0.92 in assay [2] (EDNRB, tracer 0.1μM); 1.18 in assay [2] (EDNRB, tracer 1μM); 1.05 in assay [3] (FZD10, tracer 0.1μM); 0.99 in assay [3] (FZD10, tracer 1μM).
For `CN(C)CCC=C1c2ccccc2CCc2ccc(C(=O)NCCNC(=O)CCOCCOCCOCCOCCNC(=O)CCc3ccc4n3[B-](F)(F)[N+]3=C(c5ccc[nH]5)C=CC3=C4)cc21` [Amitriptyline-a-2-NB590], the “NanoBRET Fold Response” value in assay [1] (tracer at 0.1μM) is 1.04; in assay [1] (tracer at 1μM), 1.03; in assay [2] (tracer at 0.1μM), 1.04; in assay [2] (tracer at 1μM) it was 1.05; in assay [3] (tracer at 0.1μM), 0.97; in assay [3] (tracer at 1μM), 1.01.
Turning to `COc1ccccc1N1CCN(CCCCN2C(=O)c3ccc(CNC(=O)CCOCCOCCOCCOCCNC(=O)CCc4ccc5n4[B-](F)(F)[N+]4=C(c6ccc[nH]6)C=CC4=C5)cc3C2=O)CC1` [NAN-190-2-NB590], the “NanoBRET Fold Response” value is recorded as 1.25 in assay [1] (ADRB2, tracer 0.1μM); 1.66 in assay [1] (ADRB2, tracer 1μM); 1.05 in assay [2] (EDNRB, tracer 0.1μM); 0.99 in assay [2] (EDNRB, tracer 1μM); 0.99 in assay [3] (FZD10, tracer 0.1μM); 1.04 in assay [3] (FZD10, tracer 1μM).
Regarding `O=C(CCc1ccc2n1[B-](F)(F)[N+]1=C(c3ccc[nH]3)C=CC1=C2)NCc1ccc(C(=O)NCCOCCOCCNCC(O)COc2cccc3ccccc23)cc1` (stereo not shown) [Propranolol-3-NB590], the “NanoBRET Fold Response” value was 1.05 in assay [2] (EDNRB, 0.1μM); 1.01 in assay [2] (EDNRB, 1μM); 1.04 in assay [3] (FZD10, 0.1μM); 1.02 in assay [3] (FZD10, 1μM).
As to `COc1ccccc1N1CCN(CCCCN2C(=O)c3ccc(CNC(=O)CCOCCNC(=O)c4ccc(CNC(=O)CCc5ccc6n5[B-](F)(F)[N+]5=C(c7ccc[nH]7)C=CC5=C6)cc4)cc3C2=O)CC1` [NAN-190-3-NB590], the “NanoBRET Fold Response” value in assay [1] (ADRB2, tracer 0.1μM) is 1.00; in assay [1] (ADRB2, tracer 1μM), 1.45; in assay [2] (EDNRB, tracer 0.1μM), 0.95; in assay [2] (EDNRB, tracer 1μM), 1.00; in assay [3] (FZD10, tracer 0.1μM), 0.92; in assay [3] (FZD10, tracer 1μM), 0.79.
`O=C(CCc1ccc2n1[B-](F)(F)[N+]1=C(c3ccc[nH]3)C=CC1=C2)NCc1ccc(C(=O)NCCOCCC(=O)N[C@@H]2CC[C@@]3(O)[C@H]4Cc5ccc(O)c6c5[C@@]3(CCN4CC3CC3)[C@H]2O6)cc1` [Naltrexone-3-NB590]: the “NanoBRET Fold Response” value is 1.36 in assay [1] (ADRB2, tracer 0.1μM); 0.89 in assay [1] (ADRB2, tracer 1μM); 0.94 in assay [2] (EDNRB, tracer 0.1μM); 1.06 in assay [2] (EDNRB, tracer 1μM); 0.66 in assay [3] (FZD10, tracer 0.1μM); 1.06 in assay [3] (FZD10, tracer 1μM).
Take `CCOC(=O)c1cc(C#N)c(N2CCC(C(=O)NS(=O)(=O)Cc3ccccc3/C=C/C(=O)NCCNC(=O)CCc3ccc4n3[B-](F)(F)[N+]3=C(c5ccc[nH]5)C=CC3=C4)CC2)nc1C` [AZD1283-1-NB590]: the “NanoBRET Fold Response” value was found to be 1.01 in assay [1] (ADRB2, 0.1μM); 1.06 in assay [1] (ADRB2, 1μM); 1.03 in assay [2] (EDNRB, 0.1μM); 0.98 in assay [2] (EDNRB, 1μM); 1.01 in assay [3] (FZD10, 0.1μM); 1.02 in assay [3] (FZD10, 1μM).
For `COc1ccc2[nH]c(-c3ccc(CNC(=O)CCOCCOCCOCCOCCNC(=O)CCc4ccc5n4[B-](F)(F)[N+]4=C(c6ccc[nH]6)C=CC4=C5)cc3)c(CCNC(C)=O)c2n1` [AzomelatoninICO9-2-NB590], the “NanoBRET Fold Response” value in assay [1] (0.1μM tracer) worked out at 0.94; in assay [1] (1μM tracer), 0.99; in assay [2] (0.1μM tracer), 0.95; in assay [2] (1μM tracer) it was 1.11; in assay [3] (0.1μM tracer) it was 0.96; in assay [3] (1μM tracer) it was 0.89.
For the molecule `CC(C)N(CC[C@H](c1ccccc1)c1cc(CCNC(=O)CCOCCOCCOCCOCCNC(=O)CCc2ccc3n2[B-](F)(F)[N+]2=C(c4ccc[nH]4)C=CC2=C3)ccc1O)C(C)C` [Tolterodine-2-NB590], the “NanoBRET Fold Response” value turned out to be 0.93 in assay [1] (ADRB2, tracer 0.1μM); 1.03 in assay [1] (ADRB2, tracer 1μM); 0.97 in assay [2] (EDNRB, tracer 0.1μM); 1.03 in assay [2] (EDNRB, tracer 1μM); 1.05 in assay [3] (FZD10, tracer 1μM).
In the case of `CN1CCN(C2=Nc3cc(Cl)ccc3N(CC(=O)NCCOCCOCCOCCOCCNC(=O)CCc3ccc4n3[B-](F)(F)[N+]3=C(c5ccc[nH]5)C=CC3=C4)c3ccccc32)CC1` [Clozapine-c-2-NB590], the “NanoBRET Fold Response” value was determined as 0.99 in assay [1] (ADRB2, 0.1μM tracer); 1.02 in assay [1] (ADRB2, 1μM tracer); 1.00 in assay [2] (EDNRB, 0.1μM tracer); 1.06 in assay [2] (EDNRB, 1μM tracer); 1.00 in assay [3] (FZD10, 0.1μM tracer).
Regarding `N#CN/C(=N\CCNC(=O)c1ccc(N)cc1)NCCCOc1cccc(CN2CCCCC2)c1` [Aminopotentidine (unmodified)], the “NanoBRET Fold Response” value in assay [1] (ADRB2, other tracers/Aminopotentidine (unmodified), 0.1μM) is recorded as 1.00; in assay [1] (ADRB2, other tracers/Aminopotentidine (unmodified), 1μM), 1.04.
